Experimental data taken from article PMC6386617 (Molecular cell, 2018).

Columns and labels:
[1] = target: human eIF4A1 (WT) (Homo sapiens, UniProt P60842, F163L/I199M); test: UV crosslinking of γ […]-ATP; assay type: biochemical; conditions: 10 μM protein, 0.1 μM ATP, 37 °C (crosslinking); labelled compound
[2] = target: human eIF4A1 (WT) (Homo sapiens, UniProt P60842); test: UV crosslinking of γ […]-ATP; assay type: biochemical; conditions: 10 μM protein, 0.1 μM ATP, 37 °C (crosslinking); labelled compound
human eIF4A1 (WT) (Homo sapiens, UniProt P60842), sequence (P60842 2-406): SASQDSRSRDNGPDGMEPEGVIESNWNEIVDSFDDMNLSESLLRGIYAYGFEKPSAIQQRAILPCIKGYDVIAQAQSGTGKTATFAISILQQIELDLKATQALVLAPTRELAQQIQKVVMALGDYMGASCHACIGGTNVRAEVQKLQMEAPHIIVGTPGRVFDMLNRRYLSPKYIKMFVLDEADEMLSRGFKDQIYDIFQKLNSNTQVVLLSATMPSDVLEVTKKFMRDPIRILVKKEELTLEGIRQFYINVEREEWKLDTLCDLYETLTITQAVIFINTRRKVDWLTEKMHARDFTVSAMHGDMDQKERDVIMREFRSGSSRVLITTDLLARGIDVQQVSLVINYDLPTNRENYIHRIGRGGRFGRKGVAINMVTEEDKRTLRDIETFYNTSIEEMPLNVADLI

[3] = target: eIF4A1 (19-406) (Homo sapiens, UniProt P60842 19-406); test: X-ray crystallography
eIF4A1 (19-406), sequence (P60842 19-406): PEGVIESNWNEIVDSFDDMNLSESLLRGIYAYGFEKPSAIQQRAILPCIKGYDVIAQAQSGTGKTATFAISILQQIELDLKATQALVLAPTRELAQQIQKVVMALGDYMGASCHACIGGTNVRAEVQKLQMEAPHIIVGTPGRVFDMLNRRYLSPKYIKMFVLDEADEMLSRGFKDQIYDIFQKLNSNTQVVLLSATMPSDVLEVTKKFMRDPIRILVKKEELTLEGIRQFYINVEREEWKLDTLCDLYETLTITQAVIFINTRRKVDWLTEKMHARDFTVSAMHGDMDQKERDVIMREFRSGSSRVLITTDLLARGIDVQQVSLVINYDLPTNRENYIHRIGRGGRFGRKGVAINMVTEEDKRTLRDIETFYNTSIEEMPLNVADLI

human eIF4A1 (WT) (Homo sapiens, UniProt P60842, F163L/I199M), sequence (P60842 2-406 F163L/I199M): as the sequence (P60842 2-406) above, with F162L, I198M counted along it

Row | Molecule | UV crosslinking of γ 32P-ATP; TLC ATPase assay [1] | UV crosslinking of γ 32P-ATP; TLC ATPase assay [2] | binding result [3]
1 | Nc1ncnc2c1ncn2[C@@H]1O[C@H](COP(=O)(O)OP(=O)(O)OP(=O)(O)O)[C@@H](O)[C@H]1O [ATP] | neither single nor double mutations disrupt the basic features of eIF4A1 | tested a variety of their biochemical properties: ATP binding, ATP hydrolysis | 
2 | AGAGAGAGAG (ssRNA) [(AG)5 polypurine RNA] |  |  | binds
